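Protocol summary: plate cells (96-well), add compound at 5 concentrations, incubate 48 h, interpolate endpoints linearly. GI50 marks 50% less growth. TGI: concentration producing complete growth inhibition.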
Columns and labels:
Experiment in all cases: NCI-60 cell line screen, 48 h
BT-549 breast = system: BT-549 breast
HS 578T breast = system: HS 578T breast
MCF7 breast = system: MCF7 breast
MDA-MB-435 = system: MDA-MB-435
DU-145 prostate = system: DU-145 prostate
MDA-MB-231 breast = system: MDA-MB-231 breast
NCI/ADR-RES ovarian = system: NCI/ADR-RES ovarian

Structure (SMILES) | GI50 (BT-549 breast) [µM] | TGI (BT-549 breast) [µM] | GI50 (HS 578T breast) [µM] | TGI (HS 578T breast) [µM] | GI50 (MCF7 breast) [µM] | TGI (MCF7 breast) [µM] | GI50 (MDA-MB-435) [nM] | TGI (MDA-MB-435) [µM] | GI50 (DU-145 prostate) [µM] | TGI (DU-145 prostate) [µM] | GI50 (MDA-MB-231 breast) [nM] | TGI (MDA-MB-231 breast) [µM] | GI50 (NCI/ADR-RES ovarian) [nM] | TGI (NCI/ADR-RES ovarian) [µM]
COc1ccc(OC)c(-c2cc(-c3ccc(Cl)cc3)nn2-c2ccc(S(=O)(=O)NC(C)=O)cc2)c1 | 4.26 | 14.7 | 38.2 | > 100 | 26.4 | > 100 | 45300 | > 100 |  |  |  |  |  | 
CN1C(=O)N[C@H]2[C@@H]3NC(=O)c4ccc(Br)n4[C@@H]3C[C@]21O | 0.0739 | 0.405 | 0.102 | 1.42 | 0.0281 | 1.08 | 156 | 1.72 | 0.121 | 2.8 | 165 | 2.69 | 386 | 2.22
CC(C)(C)CC(C)(C)NCc1cc(C(C)(C)C)cc(CNC(C)(C)CC(C)(C)C)c1O | 4.15 | 14.9 | 3.22 | 20.7 | 3.12 | 11.3 | 2560 | 10.9 | 6.07 | 18.5 | 1210 | 3.78 | 2810 | 11.7
COc1cc(-c2nc(-c3nc4ccccc4[nH]3)cc3c2[nH]c2ccccc23)cc(OC)c1OC | 5.48 | > 100 | 4.44 | > 100 | 4.11 | > 100 | 3650 | > 100 | 6.27 | > 100 | 8380 | > 100 | 3590 | > 100
C=C1CCC2C(C)(COC(=O)CC)C(OC(=O)CC)CCC2(C)C1C/C=C1/C(=O)OCC1OC(=O)CC (stereo unspecified) |  |  | 3.41 | 25.5 |  |  | 1680 | 3.7 | 1.82 | 3.25 | 2310 | 5.19 | 2840 | 10.5
COC(=O)c1cc(O)c2c(c1C(=O)OC)C[C@H]1[C@@H]3CC=C4C[C@@H](O)CC[C@]4(C)[C@H]3CC[C@]21C | 2.29 | 6.98 | 2.78 | 19.5 | 3.15 | 12.8 | 3010 | 20.6 | 3.89 | 16.1 | 2520 | 7.41 | 3610 | 24.4
CC1(CCC(=O)OC2CCCCC2)OCCO1 |  |  |  | > 100 |  | > 100 |  | > 100 |  | > 100 |  | > 100 |  | > 100
COc1cc(Nc2nc3ccccc3cc2C(=O)Nc2ccc(F)c(F)c2)cc(OC)c1OC | 2.48 | 6.54 | 2.8 | 13.6 | 2.16 | 8.4 | 2190 | 5.17 | 4.25 | > 100 | 2060 | 5.69 | 2490 | 7.21
O=C(OCc1ncc(-c2ccc(C(F)(F)F)cc2)c(NC2CCCCCC2)n1)c1c(F)c(F)c(F)c(F)c1F | 9 | 27.1 | 16.2 | 51.9 | 2.06 | 5.81 | 15800 | 32.6 | 12.5 | 25.3 | 9930 | 23.2 | 21200 | 55.5
OCC(O)c1nc2ccc3[nH]ncc3c2c2c1CCCC2 (stereo unspecified) | 0.934 | 2.2 | 1.4 | 4.26 | 0.931 | > 50 | 1420 | 4.31 | 1.59 | > 50 | 1750 | > 50 | 1340 | 4.51
Cc1nc(N2CCC3(CC2)CO[C@@H](C)[C@H]3N)c(CO)nc1Sc1ccnc(N)c1Cl | 6.56 | > 100 | 11 | 99.1 | > 92.4 | > 100 | > 100000 | > 100 | 45.3 | > 100 | > 100000 | > 100 | 47300 | > 100
COc1cccc(/C=C/C(=O)c2ccc(Cl)cc2Cl)c1 | 11 | 22.4 | 22.3 | > 50 | 7.84 | 47.1 | 11100 | 28.6 | 9.42 | 17.3 | 8110 | 15.9 | 11600 | 33.1
CCCC(CCC)C(=O)OCC1(CO)C/C(=C\c2ccc(F)cc2)C(=O)O1 (stereo unspecified) | 7.25 | 22.6 | 14.3 | 43.5 | 15.5 | 31.4 | 2430 | 20.9 | 12.7 | 25.7 | 6980 | 23.9 | 13900 | 33.4
SCCSCCCSCCS |  | > 100 |  |  |  | > 100 |  | > 100 |  | > 100 |  | > 100 |  | > 100
O=Cc1cccc2c1Oc1c(cccc1C(=O)O)S2 |  | > 100 |  | > 100 |  | > 100 |  | > 100 |  | > 100 |  | > 100 |  | > 100
COc1ccc(/C=N\Nc2ccc([N+](=O)[O-])cn2)cc1OC | > 100 | > 100 | 21 | > 100 |  |  | > 100000 | > 100 | > 100 | > 100 | 6820 | > 100 | > 100000 | > 100
O=C(/C=C/c1ccccc1)n1c(-c2ccc(Cl)cc2)nc2ccccc21 | 1.67 | 3.22 | 2.57 | 17.9 | 1.01 | 9.92 | 1110 | 3.04 | 1.8 | 4.93 | 1880 | 5.18 | 1490 | 61.3
O=C(O)C(Cl)(c1ccccc1)c1ccccc1 |  | > 100 |  | > 100 |  | > 100 |  | > 100 |  | > 100 |  | > 100 |  | > 100
COc1ccc2c(c1)CC[C@H](O)/C2=C/c1cc(OC)c(OC)c(OC)c1 | 0.147 | 17.6 | 0.101 | > 100 | 0.0379 | > 100 |  |  | 0.156 | > 100 | 604 | > 100 | 63.9 | 

Source: PubChem BioAssay (NCI)
